# Data from US4440770A, “Diuretic, hypotensive and antiedemic quinoline oximes” (Mochida Seiyaku Kabushiki Kaisha, priority 1980, dated 1984).
# Tested on: rats
# Experiment: Diuretic effect in rats
# Type: in vivo, Wister strain male rats
# Details: Rattus norvegicus, po, 5 h, dosage 10 mg/kg, urine volume up to 5 hours, % of control
# Description: Wister strain male rats weighing about 200 g were starved overnight and each compound of this invention suspended in 25 ml/kg of physiological saline were administered orally to the 5 animals in each group, and the diuretic effect up to 5 hours after the administration was measured. The diuretic effect is expressed as the average urine volume (%) of the treated group divided by that of the control group.
row,SMILES,response vs control in vivo at 10 mg/kg [%]
1,"CN(C)C(=O)N1CCC(=NO)c2cc(F)ccc21 [XXI, 6-Fluoro-4-oximino-1-dimethylcarbamoyl-1,2,3,4-tetrahydroquinoline]",128

# Same assay, conditions: Rattus norvegicus, po, 5 h, dosage 20 mg/kg, urine volume up to 5 hours, % of control
row,SMILES,response vs control in vivo at 20 mg/kg [%]
1,"CC(=O)N1CCC(=NO)c2cc(Br)ccc21 [XIV, 6-Bromo-4-oximino-1-acetyl-1,2,3,4-tetrahydroquinoline]",234
2,"CN(C)C(=O)N1CCC(=NO)c2cc(F)ccc21 [XXI, 6-Fluoro-4-oximino-1-dimethylcarbamoyl-1,2,3,4-tetrahydroquinoline]",209

# Same assay, conditions: Rattus norvegicus, po, 5 h, dosage 25 mg/kg, urine volume up to 5 hours, % of control
row,SMILES,response vs control in vivo at 25 mg/kg [%]
1,"CC(C)C(=O)N1CCC(=NO)c2cc(Cl)ccc21 [Compound IV, 6-Chloro-4-oximino-1-isobutyryl-1,2,3,4-tetrahydroquinoline]",119

# Same assay, conditions: Rattus norvegicus, po, 5 h, dosage 50 mg/kg, urine volume up to 5 hours, % of control
row,SMILES,response vs control in vivo at 50 mg/kg [%]
1,"CC(C)C(=O)N1CCC(=NO)c2cc(Cl)ccc21 [Compound IV, 6-Chloro-4-oximino-1-isobutyryl-1,2,3,4-tetrahydroquinoline]",211
2,"CCCCC(=O)N1CCC(=NO)c2cc(Cl)ccc21 [Compound V, 6-Chloro-4-oximino-1-valeryl-1,2,3,4-tetrahydroquinoline]",209
3,"CC(C)CC(=O)N1CCC(=NO)c2cc(Cl)ccc21 [Compound VI, 6-Chloro-4-oximino-1-isovaleryl-1,2,3,4-tetrahydroquinoline]",196
4,"O=C(Cc1ccccc1)N1CCC(=NO)c2cc(Cl)ccc21 [Compound VII, 6-Chloro-4-oximino-1-phenylacetyl-1,2,3,4-tetrahydroquinoline]",202
5,"O=C(C=Cc1ccccc1)N1CCC(=NO)c2cc(Cl)ccc21 [Compound VIII, 6-Chloro-4-oximino-1-cinnamoyl-1,2,3,4-tetrahydroquinoline]",228
6,"CNC(=O)N1CCC(=NO)c2cc(Cl)ccc21 [XIX, 6-Chloro-4-oximino-1-methylcarbamoyl-1,2,3,4-tetrahydroquinoline]",180
7,"CC(C)C(=O)N1CCC(=NO)c2cc(Br)ccc21 [XVII, 6-Bromo-4-oximino-1-isobutyryl-1,2,3,4-tetrahydroquinoline]",173
8,"O=C(C=Cc1ccccc1)N1CCC(=NO)c2cc(Br)ccc21 [XVIII, 6-Bromo-4-oximino-1-cinnamoyl-1,2,3,4-tetrahydroquinoline]",203
9,"CNC(=O)N1CCC(=NO)c2cc(Br)ccc21 [XX, 6-Bromo-4-oximino-1-methylcarbamoyl-1,2,3,4-tetrahydroquinoline]",197

# Tested on: Carrageenin-Induced Foot Edema
# Experiment: Inhibition for carrageenin-induced foot edema in rats
# Type: in vivo, Wister strain male rats
# Details: Rattus norvegicus, po, 1 hour before carrageenin, paw volume 3 hours after, probit method, read-out: ED30 (dosage for 30% inhibition of edema)
# Description: 10 Wister strain male rats weighing about 120 g were used in each group. Each compound of this invention was suspended in a 5% aqueous arabic gum solution and administered orally to the animals. One hour after the administration, 0.1 ml of a 1% solution of carrageenin in physiological saline as a phlogistic agent was subcutaneously injected into the right hind paw of the rats which had been shaven previously. The volume of the right hind paw was measured before the administration of the phlogistic agent and 3 hours after the administration. The intensity of edema expressed as percent increase in the foot volume was calculated from the […] (1) and the percent inhibition of edema was calculated from the equation (2). [formula]
# The effective dosage of each compound for inhibiting edema was expressed as ED30 (mg/kg) by calculating the dosage for 30% inhibition from the percent inhibition of edema according to the probit method.
row,SMILES,ED30 [mg/kg]
1,"CC(C)C(=O)N1CCC(=NO)c2cc(Cl)ccc21 [Compound IV, 6-Chloro-4-oximino-1-isobutyryl-1,2,3,4-tetrahydroquinoline]",87
2,"CCCCC(=O)N1CCC(=NO)c2cc(Cl)ccc21 [Compound V, 6-Chloro-4-oximino-1-valeryl-1,2,3,4-tetrahydroquinoline]",140
3,"CC(C)CC(=O)N1CCC(=NO)c2cc(Cl)ccc21 [Compound VI, 6-Chloro-4-oximino-1-isovaleryl-1,2,3,4-tetrahydroquinoline]",105
4,"O=C(Cc1ccccc1)N1CCC(=NO)c2cc(Cl)ccc21 [Compound VII, 6-Chloro-4-oximino-1-phenylacetyl-1,2,3,4-tetrahydroquinoline]",140
5,"O=C(C=Cc1ccccc1)N1CCC(=NO)c2cc(Cl)ccc21 [Compound VIII, 6-Chloro-4-oximino-1-cinnamoyl-1,2,3,4-tetrahydroquinoline]",44
6,"CCCCC1C(=O)N(c2ccccc2)N(c2ccccc2)C1=O [Phenylbutazone, reference compound]",65
7,"CC(=O)N1CCC(=NO)c2cc(Br)ccc21 [XIV, 6-Bromo-4-oximino-1-acetyl-1,2,3,4-tetrahydroquinoline]",182
8,"CNC(=O)N1CCC(=NO)c2cc(Cl)ccc21 [XIX, 6-Chloro-4-oximino-1-methylcarbamoyl-1,2,3,4-tetrahydroquinoline]",62
9,"CC(C)C(=O)N1CCC(=NO)c2cc(Br)ccc21 [XVII, 6-Bromo-4-oximino-1-isobutyryl-1,2,3,4-tetrahydroquinoline]",102
10,"O=C(C=Cc1ccccc1)N1CCC(=NO)c2cc(Br)ccc21 [XVIII, 6-Bromo-4-oximino-1-cinnamoyl-1,2,3,4-tetrahydroquinoline]",133
11,"CNC(=O)N1CCC(=NO)c2cc(Br)ccc21 [XX, 6-Bromo-4-oximino-1-methylcarbamoyl-1,2,3,4-tetrahydroquinoline]",95
12,"CN(C)C(=O)N1CCC(=NO)c2cc(F)ccc21 [XXI, 6-Fluoro-4-oximino-1-dimethylcarbamoyl-1,2,3,4-tetrahydroquinoline]",141

# Same assay, conditions: oral, 1 hour before carrageenin; paw volume 3 hours after; probit method
row,SMILES,ED30 (dosage for 30% inhibition of edema) [mg/kg]
1,"CCCCC1C(=O)N(c2ccccc2)N(c2ccccc2)C1=O [Phenylbutazone, reference compound]",63

# Tested on: not listed separately
# Experiment: Acute oral toxicity in mice
# Details: mouse, in vivo, mortality 7 days after administration
# Description: 10 ddY Strain male mice weighing about 20 g were used in each group. Each compound of this invention was suspended in a 5% aqueous gum arabic solution and administered orally. The mortality rate (%) was determined from the number of dead animals 7 days after the administration, and the dosage corresponding to 50% mortality was calculated and expressed as LD50 (mg/kg).
row,SMILES,LD50 at 168 h [mg/kg]
1,"CC(C)C(=O)N1CCC(=NO)c2cc(Cl)ccc21 [Compound IV, 6-Chloro-4-oximino-1-isobutyryl-1,2,3,4-tetrahydroquinoline]",> 5000
2,"CCCCC(=O)N1CCC(=NO)c2cc(Cl)ccc21 [Compound V, 6-Chloro-4-oximino-1-valeryl-1,2,3,4-tetrahydroquinoline]",> 5000
3,"CC(C)CC(=O)N1CCC(=NO)c2cc(Cl)ccc21 [Compound VI, 6-Chloro-4-oximino-1-isovaleryl-1,2,3,4-tetrahydroquinoline]",> 5000
4,"O=C(Cc1ccccc1)N1CCC(=NO)c2cc(Cl)ccc21 [Compound VII, 6-Chloro-4-oximino-1-phenylacetyl-1,2,3,4-tetrahydroquinoline]",> 5000
5,"O=C(C=Cc1ccccc1)N1CCC(=NO)c2cc(Cl)ccc21 [Compound VIII, 6-Chloro-4-oximino-1-cinnamoyl-1,2,3,4-tetrahydroquinoline]",> 5000
6,"CC(=O)N1CCC(=NO)c2cc(Br)ccc21 [XIV, 6-Bromo-4-oximino-1-acetyl-1,2,3,4-tetrahydroquinoline]",> 5000
7,"CNC(=O)N1CCC(=NO)c2cc(Cl)ccc21 [XIX, 6-Chloro-4-oximino-1-methylcarbamoyl-1,2,3,4-tetrahydroquinoline]",> 5000
8,"CC(C)C(=O)N1CCC(=NO)c2cc(Br)ccc21 [XVII, 6-Bromo-4-oximino-1-isobutyryl-1,2,3,4-tetrahydroquinoline]",> 5000
9,"O=C(C=Cc1ccccc1)N1CCC(=NO)c2cc(Br)ccc21 [XVIII, 6-Bromo-4-oximino-1-cinnamoyl-1,2,3,4-tetrahydroquinoline]",> 5000
10,"CNC(=O)N1CCC(=NO)c2cc(Br)ccc21 [XX, 6-Bromo-4-oximino-1-methylcarbamoyl-1,2,3,4-tetrahydroquinoline]",> 5000
11,"CN(C)C(=O)N1CCC(=NO)c2cc(F)ccc21 [XXI, 6-Fluoro-4-oximino-1-dimethylcarbamoyl-1,2,3,4-tetrahydroquinoline]",> 5000

# Tested on: not listed separately
# Experiment: Properties of respective derivatives (solubility)
# Type: physicochemical
# Details: ethanol and dichloromethane
row,SMILES,Solubility in ethanol and dichloromethane
1,"CC(=O)N1CCC(=NO)c2cc(Br)ccc21 [XIV, 6-Bromo-4-oximino-1-acetyl-1,2,3,4-tetrahydroquinoline]",soluble
2,"CNC(=O)N1CCC(=NO)c2cc(Cl)ccc21 [XIX, 6-Chloro-4-oximino-1-methylcarbamoyl-1,2,3,4-tetrahydroquinoline]",soluble
3,"CC(C)C(=O)N1CCC(=NO)c2cc(Br)ccc21 [XVII, 6-Bromo-4-oximino-1-isobutyryl-1,2,3,4-tetrahydroquinoline]",soluble
4,"O=C(C=Cc1ccccc1)N1CCC(=NO)c2cc(Br)ccc21 [XVIII, 6-Bromo-4-oximino-1-cinnamoyl-1,2,3,4-tetrahydroquinoline]",soluble
5,"CNC(=O)N1CCC(=NO)c2cc(Br)ccc21 [XX, 6-Bromo-4-oximino-1-methylcarbamoyl-1,2,3,4-tetrahydroquinoline]",soluble
6,"CN(C)C(=O)N1CCC(=NO)c2cc(F)ccc21 [XXI, 6-Fluoro-4-oximino-1-dimethylcarbamoyl-1,2,3,4-tetrahydroquinoline]",soluble

# Same assay, conditions: methanol, acetone and chloroform
row,SMILES,"Solubility in methanol, acetone and chloroform"
1,"CC(C)C(=O)N1CCC(=NO)c2cc(Cl)ccc21 [Compound IV, 6-Chloro-4-oximino-1-isobutyryl-1,2,3,4-tetrahydroquinoline]",easily soluble
2,"CCCCC(=O)N1CCC(=NO)c2cc(Cl)ccc21 [Compound V, 6-Chloro-4-oximino-1-valeryl-1,2,3,4-tetrahydroquinoline]",easily soluble
3,"CC(C)CC(=O)N1CCC(=NO)c2cc(Cl)ccc21 [Compound VI, 6-Chloro-4-oximino-1-isovaleryl-1,2,3,4-tetrahydroquinoline]",easily soluble
4,"O=C(Cc1ccccc1)N1CCC(=NO)c2cc(Cl)ccc21 [Compound VII, 6-Chloro-4-oximino-1-phenylacetyl-1,2,3,4-tetrahydroquinoline]",easily soluble
5,"O=C(C=Cc1ccccc1)N1CCC(=NO)c2cc(Cl)ccc21 [Compound VIII, 6-Chloro-4-oximino-1-cinnamoyl-1,2,3,4-tetrahydroquinoline]",easily soluble

# Same assay, conditions: water and hexane
row,SMILES,Solubility in water and hexane
1,"CC(C)C(=O)N1CCC(=NO)c2cc(Cl)ccc21 [Compound IV, 6-Chloro-4-oximino-1-isobutyryl-1,2,3,4-tetrahydroquinoline]",Sparingly soluble
2,"CCCCC(=O)N1CCC(=NO)c2cc(Cl)ccc21 [Compound V, 6-Chloro-4-oximino-1-valeryl-1,2,3,4-tetrahydroquinoline]",Sparingly soluble
3,"CC(C)CC(=O)N1CCC(=NO)c2cc(Cl)ccc21 [Compound VI, 6-Chloro-4-oximino-1-isovaleryl-1,2,3,4-tetrahydroquinoline]",Sparingly soluble
4,"O=C(Cc1ccccc1)N1CCC(=NO)c2cc(Cl)ccc21 [Compound VII, 6-Chloro-4-oximino-1-phenylacetyl-1,2,3,4-tetrahydroquinoline]",Sparingly soluble
5,"O=C(C=Cc1ccccc1)N1CCC(=NO)c2cc(Cl)ccc21 [Compound VIII, 6-Chloro-4-oximino-1-cinnamoyl-1,2,3,4-tetrahydroquinoline]",Sparingly soluble
6,"CC(=O)N1CCC(=NO)c2cc(Br)ccc21 [XIV, 6-Bromo-4-oximino-1-acetyl-1,2,3,4-tetrahydroquinoline]",Sparingly soluble
7,"CNC(=O)N1CCC(=NO)c2cc(Cl)ccc21 [XIX, 6-Chloro-4-oximino-1-methylcarbamoyl-1,2,3,4-tetrahydroquinoline]",Sparingly soluble
8,"CC(C)C(=O)N1CCC(=NO)c2cc(Br)ccc21 [XVII, 6-Bromo-4-oximino-1-isobutyryl-1,2,3,4-tetrahydroquinoline]",Sparingly soluble
9,"O=C(C=Cc1ccccc1)N1CCC(=NO)c2cc(Br)ccc21 [XVIII, 6-Bromo-4-oximino-1-cinnamoyl-1,2,3,4-tetrahydroquinoline]",Sparingly soluble
10,"CNC(=O)N1CCC(=NO)c2cc(Br)ccc21 [XX, 6-Bromo-4-oximino-1-methylcarbamoyl-1,2,3,4-tetrahydroquinoline]",Sparingly soluble
11,"CN(C)C(=O)N1CCC(=NO)c2cc(F)ccc21 [XXI, 6-Fluoro-4-oximino-1-dimethylcarbamoyl-1,2,3,4-tetrahydroquinoline]",Sparingly soluble
